Legend:
gastric secretion = assay: Test B: Inhibition of Rodent Gastric Secretion (pylorus-ligated rat); assay type: in vivo; conditions: subcutaneous, 2 x 1.5 mg/kg (total 3.0 mg/kg), 4 hours after pyloric ligation
Description: A procedure based on that described by Lipmann (J. Pharm. Pharmacol., 21:335 [ 1968]) was used to assess the influence of test compounds on gastric secretion. Rats of one sex weighing 150 to 200 g were randomly divided into groups of six animals each and fasted for 48 hours previously to the experiments, water being available adlibitum. The animals were anesthetized with ether, the abdomen was opened through a midline incision and the pylorus was ligated. Test compounds were diluted from stock solution so as to administer a dose of 1.5 mg/kg in a volume equivalent to 1 ml/kg. Subcutaneous injections were applied immediately after surgery and again 2 hours later, so that a total dose of 3.0 mg/kg was administered. Dilutions were made with phosphate buffer (pH 7.38) as recommended by Lee et al. (Prostaglandins 3:29 [ 1973]), in order to insure adequate stability of drugs at the subcutaneous depot. Each compound was tested in one group of rats; an additional control group received only the vehicle.
Four hours after pyloric ligation the animals were killed with ether, the cardias ligated and the stomachs removed. The volume of gastric secretion was measured and the contents centrifuged at 5000 rpm for 10 minutes. Total acid in the supernatant was titrated against a 0.1 N sodium hydroxide solution and the amount expressed in mEq.
Volume and total acid values of the treated group were compared with those of the controls by the "T" test. Antisecretory activity was scored according to the following scale: […]

[1] = system: human platelet aggregation; assay: Test A: Inhibition of Human Platelet Aggregation; assay type: cell-based; conditions: human platelet rich plasma, in vitro, collagen-induced, 37° C, 15 minutes
Description: The ability of test compounds to inhibit platelet aggreagation was determined by a modification of the turbidometric technique of Born (Nature, 194: 927 [1962]). Blood was collected from human volunteer who had not ingested aspirin or aspirin-containing products within the preceding two weeks in heparinized containers and was allowed to settle for one (1) hour. The platelet rich plasma (prp) supernates were collected and cooled. Siliconized glassware was used throughout.
In a representative assay 1.9 ml of PRP and 0.2 ml of test compound at the appropriate concentrations (0.001 to 100 mcgm), or 0.2 ml of distilled water (control procedure) were placed in sample cuvettes. The cuvettes were placed in a 37° C incubation block for 15 minutes, and then in a spectrophotometer linked to a strip chart recorder. After 30-60 seconds, 0.2 ml of a solution, prepared by diluting a calf-skin collagen solution 1:9 with Tyrodes' Solution, was added to each cuvette. Platelet aggregation was evidenced by a decrease in optical density.
An ED50 value was then determined graphically.

femoral blood flow = assay: Test C: Increase in Canidae Femoral Blood Flow; assay type: in vivo; conditions: anesthetized dog, intraarterial, 0.001 to 10 mcg
Description: The peripheral vasodilator or constrictor effects of test compounds were determined in mongrel dogs of either sex, weighing between 10 and 20 kg anesthestized intravenously with 35 mg/kg of sodium pentobarbital. An external iliac artery was dissected immediately above the femoral arch for a length of approximately 5 cm and a previously calibrated, non-connulating electromagnetic flowmeter sensor with a lumen between 2.5 and 3.5 mm was placed snugly around the vessel. Cannulas were placed in a branch of the artery arising distally to the location of the flowmeter sensor for intraarterial drug administrations, in the contralateral femoral artery for systemic blood pressure recordings and in the trachea for artificial respiration with room air. Femoral blood flow and systemic blood pressure were continuously recorded with an electromagnetic flowmeter and pressure tranducer, respectively.
After an adequate control period, test compounds were injected intraarterially at one log-spaced doses ranging from 0.001 to 10 mcg., in a volume of 0.5 ml and at 5 to 10 minute intervals. Maximum changes in bloodflow, as well as any variations in blood pressure, were tabulated for each dose in absolute values (ml/min. and mmHg). The calculations were made taking as control values those existing immediately before administration of each dose. The direction of the observed change (plus for increase and minus for decrease) was also noted. The dose changing bloodflow by 100 ml/min (ED100 ml/min) was calculated graphically and was used for scoring activity as follows: […]

blood pressure = assay: Test D: Decrease in Normal Feline Blood Pressure and Heart Rate (anesthetized cat); assay type: in vivo; conditions: intravenous, 0.01 to 10.0 mcg/kg, judged only on hypotension
Description: The acute effects of test compounds on blood pressure and heart rate were determined in cats of either sex anesthetized with a mixture of pentobarbital sodium (35 mg/kg, i.v.) and barbital sodium (100 mg/kg, i.v.). Cannulas were placed in the trachea to allow adequate spontaneous ventilation, in a femoral artery for blood pressure recording with a strain gage transducer, and in a saphenous vein for drug administration. Heart rate was recorded by means of a cardiotachometer driven by the R wave of the electrocardiogram. After a period of 10 minutes of stable recordings of blood pressure and heart rate, the test compound was administered intravenously at doses increasing from 0.01 to 10.0 mcg/kg, spaced one log and injected at 10 minutes intervals. All doses were injected in a volume of 0.1 ml/kg. Modifications of blood pressure and heart rate induced by the test compound were expressed both in absolute units (mmHg and beats/minutes) and as percent of values recorded immediately before administration of each dose. Biphasic responses were tabulated in the order in which they occur. The direction of the observed changes was also noted (+ for increases and - for decreases).
Activity of compounds in this test was judged only on the basis of the degree of hypotension observed. Thus, the ED50 mmHg (dose decreasing blood pressure by 50 mmHg) was calculated graphically and the compound scored according to the following scale: […]

Compound | Activity Value Test B (% decrease in acidity) (gastric secretion) | Activity Value Test A (ED50, inhibition of platelet aggregation) [1] | Activity Value Test C (ED100 ml/min, dose changing bloodflow by 100 ml/min) (femoral blood flow) | Activity Value Test D (ED50 mmHg, dose decreasing blood pressure by 50 mmHg) (blood pressure)
COC(=O)CCCCCC[C@@H]1[C@@H](/C=C/[C@@H](O)C2CC3CCC3C2)[C@H](O)C[C@@H]1O (stereo partly drawn) [TR-4711, methyl 7-{3R, 5S-dihydroxy-2R-[3S-hydroxy-3-(bicyclo[3.2.0]hept-3-yl)-1E-propenyl]cyclopent-1R-yl}heptanoate] | 1 (26-50, not significant) | – | – | –
O=C(O)CCC/C=C\C[C@H]1C(=O)CC[C@@H]1/C=C/[C@H](O)CCCCC1CCCC2CCCCC21 (mixture of isomers) [TR-4173, dl-7-{5-oxo-2R-[3R-hydroxy-7-(bicyclo[4.4.0]dec-2-yl)-1E-heptenyl]cyclopent-1R-yl}hept-5Z-enoic acid] | – | 1 (>1.0) | – | –
O=C(O)CCCCCC[C@H]1C(=O)CC[C@@H]1/C=C/[C@H](O)CCCCC1CCCC2CCCCC21 (relative stereo) [TR-4190, dl-7-{5-oxo-2R-[3R-hydroxy-7-(bicyclo[4.4.0]dec-2-yl)-1E-heptenyl]cyclopent-1R-yl}heptanoic acid] | 0 (<26) | 1 (>1.0) | – | –
COC(=O)CCCCCC[C@H]1C(=O)C[C@@H](O)[C@@H]1/C=C/[C@@H](O)C1CC2CCC2C1 (stereo partly drawn) [TR-4099, methyl 7-{3R-hydroxy-5-oxo-2R-[2S-hydroxy-3-(bicyclo[3.2.0]hept-3-yl)-1E-propenyl]cyclopent-1R-yl)heptanoae] | 1 (26-50, not significant) | 2 (>0.1≤1.0) | 0 (>10.0) | 0 (>10.0)
O=C(O)CCC/C=C\C[C@H]1C(=O)CC[C@@H]1/C=C/[C@H](O)CCCCC1CCCC2CCCCC21 (relative stereo) [TR-4174, dl-7-{5-oxo-2R-[3R-hydroxy-7-(bicyclo[4.4.0]dec-2-yl)-1E-heptenyl]cyclopent-1R-yl}-hept-5Z-enoic acid] | – | 1 (>1.0) | – | –
COC(=O)CCCCCC[C@H]1C(=O)C[C@@H](O)[C@@H]1/C=C/[C@@H](O)CCCCC1CCCC2CCCCC21 (some centres unmarked) [TR-4172] | 0 (<26) | 1 (>1.0) | 0 (>10.0) | 0 (>10.0)
COC(=O)CCCCCC[C@H]1C(=O)C=C[C@@H]1/C=C/[C@H](O)CCCCC1CCC2CCC1C2 (stereo partly drawn) [TR-4119, methyl 7-{5-oxo-2R-[3R-hydroxy-7-(bicyclo[3.2.1]oct-2-yl)-1E-hepentyl]cyclopent-3-en-1R-yl}heptanoate] | 0 (<26) | 1 (>1.0) | 0 (>10.0) | 0 (>10.0)
COC(=O)CCCCCC[C@H]1C(=O)C[C@@H](O)[C@@H]1/C=C/[C@@H](O)CCCCC1CCC2CCC1C2 (stereo partly drawn) [TR-4117, methyl 7-{3R-hydroxy-5-oxo-2R-[3S-hydoxy-7-(bicyclo[3.2.1]oct-2-yl)-1E-heptenyl]cyclopent-1R-yl}heptanoate] | 0 (<26) | 1 (>1.0) | 0 (>10.0) | 0 (>10.0)
COC(=O)CCCCCC[C@H]1C(=O)C[C@@H](O)[C@@H]1/C=C/[C@H](O)CCCCC1CCCC2CCCCC21 (some centres unmarked) [TR-4166] | 0 (<26) | 1 (>1.0) | 0 (>10.0) | 0 (>10.0)
COC(=O)CCCCCC[C@H]1C(=O)C[C@@H](O)[C@@H]1/C=C/[C@H](O)C1CC2CCC2C1 (stereo partly drawn) [TR-4098, methyl 7-{3R-hydroxy-5-oxo-2R-[3R-hydroxy-3-(bicyclo[3.2.0]hept-3-yl)-1E-propenyl]cyclopent-1R-yl]heptanoate] | 4 (76-100) | – | 2 (0.11 - 1.0) | 2 (0.11 - 1.0)
O=C(O)CCCCCC[C@H]1C(=O)CC[C@@H]1/C=C/[C@@H](O)C1CC2CCC2C1 (mixture of isomers) [TR-4097, dl-7-{5-oxo-2R-[3S-hydroxy-3-(bicyclo[3.2.0]hept-3-yl)-1E-propenyl]cyclopent-1R-yl}heptanoic acid] | 2 (26-50, significant) | 1 (>1.0) | 1 (1.01 - 10.0) | 0 (>10.0)
COC(=O)CCCCCC[C@H]1C(=O)C=C[C@@H]1/C=C/[C@@H](O)CCCCC1CCC2CCC1C2 (stereo partly drawn) [TR-4118, methyl 7-{5-oxo-2R-[3S-hydroxy-7-(bicyclo[3.2.1]oct-2-yl)-1E-heptenyl]cyclopent-3-en-1R-yl}heptanoate] | 0 (<26) | 1 (>1.0) | 0 (>10.0) | 0 (>10.0)
COC(=O)CCCCCC[C@@H]1[C@@H](/C=C/[C@@H](O)C2CC3CCC3C2)[C@H](O)C[C@H]1O (stereo partly drawn) [TR-4712, methyl 7-{3R,5R-dihydroxy-2R-[3S-hydroxy-3-(bicyclo[3.2.0]hept-3-yl)-1E-propenyl]cyclopent-1R-yl}heptanoate] | 2 (26-50, significant) | – | – | –
O=C(O)CCCCCC[C@H]1C(=O)CC[C@@H]1/C=C/[C@H](O)C1CC2CCC2C1 (mixture of isomers) [TR-4096, dl-7-{5-oxo-2R[3R-hydroxy-3-(bicyclo[3.2.0]hept-3-yl)-1E-propenyl[cyclopent-1R-yl}heptanoic acid] | 0 (<26) | 1 (>1.0) | 2 (0.11 - 1.0) | 0 (>10.0)
dl-7-{5-oxo-2R[3R-hydroxy-2-(bicyclo[3.2.0]hept-3-yl)-1E-propenyl]cyclopent- [TR-4101] | 1 (26-50, not significant) | 1 (>1.0) | 3 (0.01 - 0.1) | 1 (1.01 - 10.0)
O=C(O)CCCCCC[C@H]1C(=O)CC[C@@H]1/C=C/[C@@H](O)CCCCC1CCCC2CCCCC21 (relative stereo) [TR-4189, dl-7-{5-oxo-2R[3S-hydroxy-7-(bicyclo[4.4.0]dec-2-yl)-1E-heptenyl]cyclopent-1R-yl}heptanoic acid] | 0 (<26) | 1 (>1.0) | – | –
